Data on six compounds can be found in patent US6803466B1, “HIV/FIV protease inhibitors having a small P3 residue” (The Scripps Research Institute, priority 1997, dated 2004).

For orientation: Ki means a dissociation constant, usually derived from enzyme kinetics or from competition with a known ligand. Read a high Ki as weaker binding.

The target in one test is T1, HIV PR G48V (Human immunodeficiency virus type 1 group M subtype B, UniProt P03366, G548V).
T1 construct: drug-resistant mutant HIV PRs G48V and V82F
To be noted: licensed drugs, literature; cited from earlier work.

The next test concerns the target T2, HIV PR V82F (Human immunodeficiency virus type 1 group M subtype B, UniProt P03366, V582F).
T2 construct: drug-resistant mutant HIV PRs G48V and V82F
To be noted: licensed drugs, literature; cited from earlier work.

In test [1] the target is T3, FIV PR (Feline immunodeficiency virus, UniProt P16088, C122K/G43I/N93T).
T3 construct: made in house; host or cells: E. coli BL21(DE3)
The test is described as follows: Inhibition of FIV PR (Ki, IC50). It counts as biochemical. On the procedure:
The solution was mixed and incubated for 10 minutes at 37° C. and the reaction quenched by addition of 8M guanidine HCl solution containing 0.2 M sodium acetate at pH 4.2 (100 μL). The cleavage products and substrate were separated by reverse phase HPLC. Absorbance was measured at 215 nm, peak areas were determined and percent conversion to product was calculated using relative peak areas. […] IC50 was determined as the inhibitor concentration at 50% inhibition. […] ([S]=substrate concentration in nmol). The data used was generated similarly to that for Ki with the following modifications. The substrate concentrations used were 560, 448, 336, 224, 111 and 56 μM, in the absence of inhibitor.
(§1) Kinetic determinations for both HIV PR and FIV PRs were performed at 37° C. at pH 5.25 in duplicate using F-2000 fluorescence spectrophotometer (Hitachi).
(§2) For FIV PRs, the kinetic data were determined under the similar reaction conditions as for HIV PR.

Test [2] deals with mutant FIV PRs (FIV(V59I), FIV(Q99V)). The test is described as follows: Inhibition of mutant FIV PRs. In kind it is biochemical, feline immunodeficiency virus. As for the experimental part:
The inhibitory effects of each inhibitor were evaluated against HIV and FIV PRs along with two mutant FIV PRs that contain amino acid substitutions corresponding to those in HIV PR at homologous sites.
as §2
Mutant FIV PRs were prepared that contained substitutions of HIV residues noted to be associated with drug resistance in HIV (16) at equivalent sites in the three dimensional structure.

Another test addresses T4, HIV PR (Human immunodeficiency virus type 1 group M subtype B, UniProt P03366, Q507K).
T4 construct: initiator Met plus the eight Pol residues preceding PR (N-terminal extension of the expressed precursor) (N); made in house; host or cells: E. coli BL21.DE3, pLysS
The test is described as follows: Inhibition of HIV PR (Ki, IC50), fluorogenic substrate. In kind it is biochemical. On the procedure:
The solution was mixed and incubated over 5 minutes during which time the rate of substrate cleavage was monitored by continuously recording the change in fluorescence of the assay solution. An excitation filter of 325 nm, and an emission filter of 420 nm were used.
Determination of Ki for HIV protease was performed similarly with the following modifications. The substrate concentrations used were 57, 43, 28 and 14 μM. All other concentrations were as above. The curve fit for the data was determined and the subsequent Ki derived using a computer program based on the equation of Morrison et. al. BioChim. Biophys. ACTA 1969,185, 269, for tight binding inhibitors.
as §1
For HIV PR, the KM and Vmax values for the fluorogenic peptide substrate 2-aminobenzoyl (Abz)-Thr-Ile-Nle-Phe-(p-NO2)-Gln-Arg-NH2 (SEQ ID NO: 3) Toth et al Int. J. Peptide Res. 36, 544-550 were determined by measuring the initial rate of hydrolysis at different substrate concentrations (5.0, 7.5, 10, 20, 35, 50, 100, and 200 μM) by monitoring the change in fluorescence at an excitation wavelength of 325 nm and an emission wavelength of 420 nm, and fitting the obtained data to the Michaelis-Menten equation using the Grafit program (version 3.0, Erithacus Software Ltd., UK). Assays were run in 0.1 M MES buffer, containing 5% (v/v) glycerol, and 5% (v/v) DMSO (200 μl final volume). The enzyme concentration (30 μg/ml) which gave ideal progress curve was used for assays, but the dimeric active HIV PR concentration was not accurately determined. […] The curve fit the data was determined, and the subsequent Ki was derived using the Grafit program.

In test [3] the test system is FIV-PPR in feline T-cells (104-C1). The test is described as follows: Ex vivo inhibitor analysis against FIV, pelletable reverse transcriptase in culture supernatant. It counts as cell-based, feline immunodeficiency virus. On the procedure: For FIV, the assays were performed in FIV-infected feline T-cells which were cultured in the presence of compound 1200 at different concentrations over the course of 1 month. Each data in FIG. 14 represents the amount of pelletable FIV reverse transcriptase in the culture supernatant. […] After one month, the drug-treated cultures were split and replated with and without compound 1200.
The lymphocytic cell line 104-C1 (provided by C. Grant) was used as the target for infection. Cells were cultured in RPMI-1640 media supplemented with 10% FBS, 200 μM L-Glutamine, 1×MEM-Vitamins, 100 μM Sodium Pyruvate, 1×Non-Essential Amino Acids, 5.5×10−5M b-ME, 50 μg/ml Gentamicin, 50 U/ml human recombinant Interleukin-2 (provided by Hoffmann-LaRoche) and 7.5 μg/ml Concanavalin-A. For inhibitor assessment, 5×10^6 cells were infected with FIV-PPR (4×105 RT units) in 1 mL culture for 2 hr at 37° C. […] The cells were then washed with Hanks-buffered saline solution (HBSS) and resuspended in 10 ml of complete medium. The compound 1200 (10 mg/mL in DMSO) was then added to final concentrations of 0.1, 0.5, 1, and 5 μg/ml in duplicate. The cells were then incubated at 37° C. The culture supernatants were monitored for the presence of pelletable reverse transcriptase activity at weekly intervals, as follows. Cell-free culture supernatants (4 ml) were centrifuged at 60K for 30 min and the pellets were resuspended in 100 μl of lysis buffer containing 40 mM TrisHCl (pH 8.1), 360 mM NaCl, 20 mM DTT and 0.2% NP40. Twenty five μl of lysate was added to 25 μl of a mixture containing polyrA-pdT (Pharmacia, Piscataway, N.J.), MgCl2, and 3H-labeled deoxythymidine 5′-triphosphate (DuPont NEN, Boston, Mass.), and incubated for 1 hr at 37° C. The mixture was spotted on DE81 paper, air-dried, fixed in 0.1 M sodium pyrophosphate, washed three times in 0.3 M ammonium formate, and an additional time in 95% ethanol. The paper was then dried and counted on a scintillation counter.
Cells were split 1:5 after the second, third, and fourth time points and fresh inhibitor was added at the appropriate concentration at each of these intervals. The data were expressed as values +/−standard deviation of the mean.

In test [4] the target is T3, FIV PR. The following applies: relative to HIV PR; Slee et al.; cited from earlier work.

Each structure is given as a SMILES string.

For `CC(C)c1nc(CN(C)C(=O)N[C@H](C(=O)N[C@@H](Cc2ccccc2)C[C@H](O)[C@H](Cc2ccccc2)NC(=O)OCc2cncs2)C(C)C)cs1` [ABT-538], the “higher IC50 / decreased potency, G48V mutant compared to wild-type HIV PR” value at HIV PR G48V is 17 fold. The “higher IC50 / less sensitive, V82F mutant compared to wild-type HIV PR” value at HIV PR V82F is reported as 90 fold.

Take `Cc1c(O)cccc1C(=O)N[C@@H](CSc1ccccc1)[C@H](O)CN1C[C@H]2CCCC[C@H]2C[C@H]1C(=O)NC(C)(C)C` [AG-1343]: on HIV PR V82F, the “higher IC50 / less sensitive, V82F mutant compared to wild-type HIV PR” value is 15 fold.

Take `CC(C)[C@H](NC(=O)[C@H](Cc1ccccc1)NC(=O)OCc1ccccc1)C(=O)N[C@@H](Cc1ccccc1)[C@@H](O)[C@H](O)[C@H](Cc1ccccc1)NC(=O)[C@@H](NC(=O)[C@H](Cc1ccccc1)NC(=O)OCc1ccccc1)C(C)C` [Compound 10b]: on FIV PR [1], the affinity corresponds to a Ki of 7 µM. Also, the “lower potency than 1b against FIV PR” value at FIV PR [1] (versus 1b) was found to be 170 fold. Moreover, the “lower potency compared to 1100, FIV PR” value at FIV PR [1] (versus 1100) is given as 45 fold. Also, on FIV PR [1] (versus 1200), the “Ki higher / potency lower than 1200, FIV PR” value amounted to 170 fold. Also, the “activity against mutant FIV PRs compared to wild type FIV PR (in words)” value in test [2] is “very similar activities”.

With `CC(C)[C@H](NC(=O)[C@H](CO)NC(=O)OCc1ccccc1)C(=O)N[C@@H](Cc1ccccc1)[C@@H](O)[C@H](O)[C@H](Cc1ccccc1)NC(=O)[C@@H](NC(=O)[C@H](CO)NC(=O)OCc1ccccc1)C(C)C` [Compound 12], at HIV PR, the affinity corresponds to a Ki of 0.58 nM and the “inhibition of HIV PR (in words)” value was “effective inhibitors”. For the same compound, the “higher potency against HIV PR compared to 1b” value at HIV PR (versus 1b) is on record as 3 fold. For the same compound, at FIV PR [1], the Ki is 0.032 µM and the “inhibition of FIV PR (in words)” value is reported as “effective inhibitors”. In addition, in test [3], the “prevention of FIV infection in tissue culture (in words)” value is recorded as “not as effective as 1b”.

Turning to `CC(C)(C)NC(=O)[C@@H]1CN(Cc2cccnc2)CCN1C[C@@H](O)C[C@@H](Cc1ccccc1)C(=O)N[C@H]1c2ccccc2C[C@H]1O` [MK-639], at HIV PR V82F, the “higher IC50 / less sensitive, V82F mutant compared to wild-type HIV PR” value is recorded as 7 fold.

In the case of `CC(C)(C)NC(=O)[C@@H]1C[C@@H]2CCCC[C@@H]2CN1C[C@@H](O)[C@H](Cc1ccccc1)NC(=O)[C@H](CC(N)=O)NC(=O)c1ccc2ccccc2n1` [RO31-8959, reference compound], the inhibition constant Ki at HIV PR stood at 1.6 nM; on FIV PR [1], 76 µM. At FIV PR [1], the “inhibition of FIV PR (in words)” value was “total loss of potency”. For the same compound, the “less efficient inhibitor of FIV PR, factor” value on FIV PR [4] is reported as at least 100. Further, at HIV PR G48V, the “higher IC50 / decreased potency, G48V mutant compared to wild-type HIV PR” value is reported as 27 fold.
